Laboratory results from patent US9956204B2, “Composition for exterminating scuticociliates in fish including mebendazole” (NATIONAL INSTITUTE OF FISHERIES SCIENCE, priority 2016, dated 2018).

Experiments:
scuticociliates [1] = assay: Scuticociliates extermination effect of candidate substances in MEM medium; type: cell-based
Description: CHSE-214 cell line into which scuticociliates were inoculated was cultured in advance. The CHSE-214 cell line was cultured in an incubator using an MEM medium at 22° C. Scuticociliates inoculated into the cell line proliferated for 3 days by which the number reaches to be capable of analyzing in vitro anti-scuticociliates effect. Scuticociliates that feed on the cell line and sufficiently grow were mixed with the candidate substance and the activity of scuticociliates was measured.
In order to analyze the antiparasitic activity of the above 19 types of candidate substances of scuticociliates extermination drugs, scuticociliates were cultured for 3 days, and 100 μl (1×10^5) was dispensed into each well of 96 wells. The candidate substances were diluted by each concentration and the final volume was dispensed into 100 μl. Thereafter, the two were mixed and finally made into 200 μl.

scuticociliates [2] = assay: Scuticociliates extermination effect of candidate substances in seawater medium; type: cell-based
Description: For this, scuticociliates were cultured in CHSE-214 cell line (using MEM medium), and then scuticociliates were collected and centrifuged with sterilized seawater or artificial seawater (20‰) to replace them with a seawater medium. Each of 100 μl (1×10^5) was dispensed into each well of 96 wells, followed by further culture for 30 minutes. The candidate substances diluted in seawater to have a volume of 100 μl per each concentration were mixed with scuticociliates to have the final volume of 200 μl and cultured for 4 hour.

[3] = seawater medium, 4 hour, Dosage 500 ppm
[4] = seawater medium, 4 hour, Dosage 800 ppm
[5] = seawater medium, 4 hour, Dosage 900 ppm
[6] = seawater medium, 4 hour, Dosage 1000 ppm
[7] = seawater medium, 4 hour, Dosage 10 ppm
[8] = seawater medium, 4 hour, Dosage 50 ppm
[9] = seawater medium, 4 hour, Dosage 100 ppm
[10] = seawater medium, 4 hour, Dosage 200 ppm
[11] = seawater medium, 4 hour, Dosage 300 ppm
[12] = seawater medium, 4 hour, Dosage 400 ppm
[13] = seawater medium, 4 hour, Dosage 600 ppm
[14] = seawater medium, 4 hour, Dosage 700 ppm

Row | SMILES | Survival or Death of scuticociliates (activity and shape, microscope) (scuticociliates [1]; MEM medium, Dosage 10 ppm) | Survival or Death of scuticociliates (activity and shape, microscope) (scuticociliates [1]; MEM medium, Dosage 50 ppm) | Survival or Death of scuticociliates (activity and shape, microscope) (scuticociliates [1]; MEM medium, Dosage 100 ppm) | Survival or Death of scuticociliates (activity and shape, microscope) (scuticociliates [1]; MEM medium, Dosage 200 ppm) | Survival or Death of scuticociliates (activity and shape, microscope) (scuticociliates [1]; MEM medium, Dosage 400 ppm) | Survival or Death of scuticociliates (activity and shape, microscope) (scuticociliates [1]; MEM medium, Dosage 500 ppm) | Survival or Death of scuticociliates (activity and shape, microscope) (scuticociliates [2]; [3]) | Survival or Death of scuticociliates (activity and shape, microscope) (scuticociliates [2]; [4]) | Survival or Death of scuticociliates (activity and shape, microscope) (scuticociliates [2]; [5]) | Survival or Death of scuticociliates (activity and shape, microscope) (scuticociliates [2]; [6]) | Survival or Death of scuticociliates (activity and shape, microscope) (scuticociliates [1]; MEM medium, Dosage 600 ppm) | Survival or Death of scuticociliates (activity and shape, microscope) (scuticociliates [1]; MEM medium, Dosage 700 ppm) | Survival or Death of scuticociliates (activity and shape, microscope) (scuticociliates [1]; MEM medium, Dosage 800 ppm) | Survival or Death of scuticociliates (activity and shape, microscope) (scuticociliates [1]; MEM medium, Dosage 900 ppm) | Survival or Death of scuticociliates (activity and shape, microscope) (scuticociliates [1]; MEM medium, Dosage 1000 ppm) | Survival or Death of scuticociliates (activity and shape, microscope) (scuticociliates [2]; [7]) | Survival or Death of scuticociliates (activity and shape, microscope) (scuticociliates [2]; [8]) | Survival or Death of scuticociliates (activity and shape, microscope) (scuticociliates [2]; [9]) | Survival or Death of scuticociliates (activity and shape, microscope) (scuticociliates [2]; [10]) | Survival or Death of scuticociliates (activity and shape, microscope) (scuticociliates [2]; [13]) | also measured
1 | CC[C@H](C)[C@H]1O[C@]2(C=C[C@@H]1C)C[C@@H]1C[C@@H](C/C=C(\C)[C@@H](O[C@H]3C[C@H](OC)[C@@H](O[C@H]4C[C@H](OC)[C@@H](O)[C@H](C)O4)[C@H](C)O3)[C@@H](C)/C=C/C=C3\CO[C@@H]4[C@H](O)C(C)=C[C@@H](C(=O)O1)[C@]34O)O2 [Abamectin] | Survival | Survival | Survival | Δ | Death | Death | Survival | Death | Death | Death | – | – | – | – | – | – | – | – | – | – | Survival or Death of scuticociliates (activity and shape, microscope) (scuticociliates [1]; MEM medium, Dosage 20 ppm): Survival; Survival or Death of scuticociliates (activity and shape, microscope) (scuticociliates [1]; MEM medium, Dosage 150 ppm): Survival; Survival or Death of scuticociliates (activity and shape, microscope) (scuticociliates [2]; seawater medium, 4 hour, Dosage 1500 ppm): Death; Survival or Death of scuticociliates (activity and shape, microscope) (scuticociliates [2]; seawater medium, 4 hour, Dosage 2000 ppm): Death
2 | CCCSc1ccc2nc(NC(=O)OC)[nH]c2c1 [Albendazole] | Survival | Survival | Survival | Survival | Survival | Survival | Survival | Δ | Death | Death | Survival | Survival | Δ | Death | Death | Survival | Survival | Survival | Survival | Survival | Survival or Death of scuticociliates (activity and shape, microscope) (scuticociliates [1]; MEM medium, Dosage 300 ppm): Survival; Survival or Death of scuticociliates (activity and shape, microscope) (scuticociliates [2]; [11]): Survival; Survival or Death of scuticociliates (activity and shape, microscope) (scuticociliates [2]; [12]): Survival; Survival or Death of scuticociliates (activity and shape, microscope) (scuticociliates [2]; [14]): Survival
3 | COC(=O)Nc1nc2ccc(Sc3ccccc3)cc2[nH]1 [Fenbendazole] | Survival | Survival | Survival | Survival | Survival | Survival | Survival | Δ | Δ | Death | Survival | Survival | Δ | Δ | Death | Survival | Survival | Survival | Survival | Survival | Survival or Death of scuticociliates (activity and shape, microscope) (scuticociliates [1]; MEM medium, Dosage 300 ppm): Survival; Survival or Death of scuticociliates (activity and shape, microscope) (scuticociliates [2]; [11]): Survival; Survival or Death of scuticociliates (activity and shape, microscope) (scuticociliates [2]; [12]): Survival; Survival or Death of scuticociliates (activity and shape, microscope) (scuticociliates [2]; [14]): Survival
4 | COP(=O)(OC)C(O)C(Cl)(Cl)Cl (stereo not drawn) [Trichlorfon] | – | – | – | Survival | – | Survival | Survival | – | – | – | Δ | Death | Death | Death | Death | Survival | Survival | Survival | Survival | Death | Survival or Death of scuticociliates (activity and shape, microscope) (scuticociliates [2]; [14]): Death
5 | CO[C@H]1C[C@H](O[C@@H]2/C(C)=C/C[C@@H]3C[C@@H](C[C@]4(CC[C@H](C)[C@@H](C5CCCCC5)O4)O3)OC(=O)[C@@H]3C=C(C)/C(=N/O)[C@H]4OC/C(=C\C=C\[C@@H]2C)[C@]43O)O[C@@H](C)[C@@H]1O [Selamectin] | – | – | – | – | – | – | – | – | – | – | – | – | – | – | – | – | – | – | – | – | Survival or Death of scuticociliates (activity and shape, microscope) (scuticociliates [1]): Survival and Δ and Death; Survival or Death of scuticociliates (activity and shape, microscope) (scuticociliates [2]): Survival and Δ and Death
6 | COC(=O)Nc1nc2ccc([S+]([O-])c3ccccc3)cc2[nH]1 (stereo not drawn) [Oxfendazole] | Survival | Survival | Survival | Survival | Survival | Survival | Survival | Δ | Δ | Death | Survival | Δ | Δ | Δ | Death | Survival | Survival | Survival | Survival | Survival | Survival or Death of scuticociliates (activity and shape, microscope) (scuticociliates [1]; MEM medium, Dosage 300 ppm): Survival; Survival or Death of scuticociliates (activity and shape, microscope) (scuticociliates [2]; [11]): Survival; Survival or Death of scuticociliates (activity and shape, microscope) (scuticociliates [2]; [12]): Survival; Survival or Death of scuticociliates (activity and shape, microscope) (scuticociliates [2]; [14]): Δ
